Source: patent US20060069132A1, “Azolecarboxamide herbicides” (priority 2004, published 2006)

Tests used:
barnyardgrass [1] = experiment: Test A pre-/postemergence herbicide test; type: in vivo, Echinochloa crus-galli
In short: (§1)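 Plants are held in greenhouse about ten days after treatment, then compared with untreated controls and scored 0 (no effect) to 100 (complete control). Preemergence dosing is a directed soil spray on sown sandy loam; postemergence dosing is spray to runoff at 2–10 cm height.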

large crabgrass [2] = experiment: Test A pre-/postemergence herbicide test; type: in vivo, Digitaria sanguinalis
In short: as §1

giant foxtail [3] = experiment: Test A pre-/postemergence herbicide test; type: in vivo, Setaria faberi
In short: as §1

morningglory [4] = experiment: Test A pre-/postemergence herbicide test; type: in vivo, Ipomoea spp.
In short: as §1

redroot pigweed = experiment: Test A pre-/postemergence herbicide test; type: in vivo, Amaranthus retroflexus
In short: as §1

velvetleaf [5] = experiment: Test A pre-/postemergence herbicide test; type: in vivo, Abutilon theophrasti
In short: as §1

barnyardgrass [6] = experiment: Test B pre-/postemergence herbicide test; type: in vivo, Echinochloa crus-galli; settings: for Plant response rating, Barnyardgrass: preemergence; for Barnyardgrass plant response rating: postemergence, visual rating, scale 0 (no effect) to 100 (complete control)
In short: (§2)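 Flooded paddy rice and barnyardgrass were treated at the 2-leaf stage; upland plantings received compound either on sown seed or on 1- to 4-leaf seedlings. All were kept 13–15 days in a greenhouse and scored visually, 0–100, relative to untreated plants.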

Surinam grass = experiment: Test B pre-/postemergence herbicide test; type: in vivo, Urochloa decumbens; settings: for Plant response rating, Surinam Grass: preemergence; for Surinam Grass plant response rating: postemergence, visual rating, scale 0 (no effect) to 100 (complete control)
In short: (§3)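 Evaluation is visual, comparing treated with control plants on a scale where 0 means no effect and 100 means full control. Treatments were preemergence, or postemergence on seedlings 2–18 cm tall, and held 13–15 days in the greenhouse.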

cocklebur = experiment: Test B pre-/postemergence herbicide test; type: in vivo, Xanthium strumarium; settings: for Plant response rating, Cocklebur: preemergence; for Cocklebur plant response rating: postemergence, visual rating, scale 0 (no effect) to 100 (complete control)
In short: as §2

corn = experiment: Test B pre-/postemergence herbicide test; type: in vivo, Zea mays; settings: for Plant response rating, Corn: preemergence; for Corn plant response rating: postemergence, visual rating, scale 0 (no effect) to 100 (complete control)
In short: as §3

large crabgrass [7] = experiment: Test B pre-/postemergence herbicide test; type: in vivo, Digitaria sanguinalis; settings: for Plant response rating, Crabgrass, Large: preemergence; for Crabgrass, Large plant response rating: postemergence, visual rating, scale 0 (no effect) to 100 (complete control)
In short: as §3

giant foxtail [8] = experiment: Test B pre-/postemergence herbicide test; type: in vivo, Setaria faberi; settings: for Plant response rating, Foxtail, Giant: preemergence; for Foxtail, Giant plant response rating: postemergence, visual rating, scale 0 (no effect) to 100 (complete control)
In short: as §3

lambsquarters = experiment: Test B pre-/postemergence herbicide test; type: in vivo, Chenopodium album; settings: for Plant response rating, Lambsquarters: preemergence; for Lambsquarters plant response rating: postemergence, visual rating, scale 0 (no effect) to 100 (complete control)
In short: as §3

morningglory [9] = experiment: Test B pre-/postemergence herbicide test; type: in vivo, Ipomoea coccinea; settings: for Plant response rating, Morningglory: preemergence; for Morningglory plant response rating: postemergence, visual rating, scale 0 (no effect) to 100 (complete control)
In short: as §2

pigweed = experiment: Test B pre-/postemergence herbicide test; type: in vivo, Amaranthus retroflexus; settings: for Plant response rating, Pigweed: preemergence; for Pigweed plant response rating: postemergence, visual rating, scale 0 (no effect) to 100 (complete control)
In short: as §3

rice [10] = experiment: Test B pre-/postemergence herbicide test; type: in vivo, Oryza sativa; settings: preemergence
In short: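 Plants compared with untreated controls 13–15 days post-treatment and given a visual 0–100 injury score. Applications: preemergence to seeds; postemergence at 1- to 4-leaf (2–18 cm); paddy species flooded, 2-leaf stage. Vehicle non-phytotoxic, surfactant included.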

velvetleaf [11] = experiment: Test B pre-/postemergence herbicide test; type: in vivo, Abutilon theophrasti; settings: for Plant response rating, Velvetleaf: preemergence; for Velvetleaf plant response rating: postemergence, visual rating, scale 0 (no effect) to 100 (complete control)
In short: as §3

blackgrass = experiment: Test B postemergence herbicide test; type: in vivo, Alopecurus myosuroides; settings: postemergence, visual rating, scale 0 (no effect) to 100 (complete control)
In short: (§4)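 After treating 2-leaf paddy plants or 2–18 cm postemergence plants (1 to 4 leaves) with formulated chemical, researchers kept them in a greenhouse for 13–15 days. Effects were judged visually versus controls: 0 indicates none, 100 total control.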

wheat = experiment: Test B postemergence herbicide test; type: in vivo, Triticum aestivum; parameters: key to Wheat plant response rating: 0 = no effect, 100 = complete control; settings: postemergence, 500 g ai/ha; visual rating, scale 0 (no effect) to 100 (complete control)
In short: as §4

wild oat = experiment: Test B postemergence herbicide test; type: in vivo, Avena fatua; settings: postemergence, visual rating, scale 0 (no effect) to 100 (complete control)
In short: as §4

rice [12] = experiment: Test B flooded paddy test; type: in vivo, Oryza sativa; settings: 1000 g ai/ha, visual rating, scale 0 to 100 (0 no effect, 100 complete control), 13 to 15 days
In short: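 Each value is a visual 0–100 response rating taken against controls 13 to 15 days after treatment in the greenhouse. Plants received formulated chemical postemergence at the 1- to 4-leaf stage or, in flooded paddy, at the 2-leaf stage.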

[13] = system: small flower umbrella sedge; experiment: Test B flooded paddy test; type: in vivo, Cyperus difformis; settings: 1000 g ai/ha, visual rating, scale 0 to 100 (0 no effect, 100 complete control), 13 to 15 days
In short: as §4

ducksalad = experiment: Test B flooded paddy test; type: in vivo, Heteranthera limosa; settings: 1000 g ai/ha, visual rating, scale 0 to 100 (0 no effect, 100 complete control), 13 to 15 days
In short: as §4

barnyardgrass [14] = experiment: Test B flooded paddy test; type: in vivo, Echinochloa crus-galli; settings: 1000 g ai/ha, visual rating, scale 0 to 100 (0 no effect, 100 complete control), 13 to 15 days
In short: as §4

[15] = Postemergence, 500 g ai/ha, 0 to 100 scale, 0 no effect, 100 complete control
[16] = Postemergence, 2000 g ai/ha, 0 to 100 scale, 0 no effect, 100 complete control
[17] = Preemergence, 500 g ai/ha, visual rating, 0 to 100 scale (0 no effect, 100 complete control)
[18] = Preemergence, 2000 g ai/ha, visual rating, 0 to 100 scale (0 no effect, 100 complete control)
[19] = preemergence, 500 g ai/ha, visual injury, 0 to 100 scale (0 no effect, 100 complete control)
[20] = 500 g ai/ha, visual rating 0-100, 0 no effect, 100 complete control
[21] = 125 g ai/ha, 0 to 100 scale, 0 is no effect, 100 is complete control

## CCNC(=O)c1cc(C)cc(NC(=O)c2cc(C(C)(C)C)nn2CC)n1 [Compound 150]
Barnyardgrass [1]; [15]
  Barnyardgrass plant response rating: 30
Barnyardgrass [1]; [16]
  Plant response rating, Barnyardgrass: 65
Barnyardgrass [1]; [17]
  Barnyardgrass plant response rating: 50
Barnyardgrass [1]; [18]
  Barnyardgrass plant response rating: 80
Large crabgrass [2]; [15]
  Crabgrass, Large plant response rating: 15
Large crabgrass [2]; [16]
  Plant response rating, Crabgrass, Large: 50
Large crabgrass [2]; [17]
  Crabgrass, Large plant response rating: 25
Large crabgrass [2]; [18]
  Crabgrass, Large plant response rating: 50
Giant foxtail [3]; [15]
  Foxtail, Giant plant response rating: 20
Giant foxtail [3]; [16]
  Plant response rating, Foxtail, Giant: 25
Giant foxtail [3]; [17]
  Foxtail, Giant plant response rating: 15
Giant foxtail [3]; [18]
  Foxtail, Giant plant response rating: 55
Morningglory [4]; [15]
  Morningglory plant response rating: 0
Morningglory [4]; [16]
  Plant response rating, Morningglory: 10
Morningglory [4]; [17]
  Morningglory plant response rating: 10
Morningglory [4]; [18]
  Morningglory plant response rating: 35
Redroot pigweed; [15]
  Pigweed plant response rating: 80
Redroot pigweed; [16]
  Plant response rating, Pigweed: 75
Redroot pigweed; [18]
  Pigweed plant response rating: 100
Redroot pigweed; [19]
  Pigweed plant response rating: 75
Velvetleaf [5]; [15]
  Velvetleaf plant response rating: 25
Velvetleaf [5]; [16]
  Plant response rating, Velvetleaf: 15
Velvetleaf [5]; [18]
  Velvetleaf plant response rating: 50
Velvetleaf [5]; [19]
  Velvetleaf plant response rating: 20
Barnyardgrass [6]; [20]
  Plant response rating, Barnyardgrass: 80
Barnyardgrass [6]; 125 g ai/ha
  Barnyardgrass plant response rating: 10
Barnyardgrass [6]; 500 g ai/ha
  Barnyardgrass plant response rating: 50
Barnyardgrass [6]; [21]
  Plant response rating, Barnyardgrass: 30
Surinam grass; [20]
  Plant response rating, Surinam Grass: 10
Surinam grass; 125 g ai/ha
  Surinam Grass plant response rating: 10
Surinam grass; 500 g ai/ha
  Surinam Grass plant response rating: 40
Surinam grass; [21]
  Plant response rating, Surinam Grass: 10
cocklebur; [20]
  Plant response rating, Cocklebur: 0
cocklebur; 125 g ai/ha
  Cocklebur plant response rating: 60
cocklebur; 500 g ai/ha
  Cocklebur plant response rating: 80
cocklebur; [21]
  Plant response rating, Cocklebur: 0
corn; [20]
  Plant response rating, Corn: 20
corn; 125 g ai/ha
  Corn plant response rating: 10
corn; 500 g ai/ha
  Corn plant response rating: 50
corn; [21]
  Plant response rating, Corn: 0
Large crabgrass [7]; [20]
  Plant response rating, Crabgrass, Large: 10
Large crabgrass [7]; 125 g ai/ha
  Crabgrass, Large plant response rating: 10
Large crabgrass [7]; 500 g ai/ha
  Crabgrass, Large plant response rating: 10
Large crabgrass [7]; [21]
  Plant response rating, Crabgrass, Large: 0
Giant foxtail [8]; [20]
  Plant response rating, Foxtail, Giant: 60
Giant foxtail [8]; 125 g ai/ha
  Foxtail, Giant plant response rating: 0
Giant foxtail [8]; 500 g ai/ha
  Foxtail, Giant plant response rating: 10
Giant foxtail [8]; [21]
  Plant response rating, Foxtail, Giant: 0
lambsquarters; [20]
  Plant response rating, Lambsquarters: 100
lambsquarters; 125 g ai/ha
  Lambsquarters plant response rating: 50
lambsquarters; 500 g ai/ha
  Lambsquarters plant response rating: 70
lambsquarters; [21]
  Plant response rating, Lambsquarters: 0
Morningglory [9]; [20]
  Plant response rating, Morningglory: 20
Morningglory [9]; 125 g ai/ha
  Morningglory plant response rating: 20
Morningglory [9]; 500 g ai/ha
  Morningglory plant response rating: 40
Morningglory [9]; [21]
  Plant response rating, Morningglory: 0
pigweed; [20]
  Plant response rating, Pigweed: 100
pigweed; 125 g ai/ha
  Pigweed plant response rating: 70
pigweed; 500 g ai/ha
  Pigweed plant response rating: 90
pigweed; [21]
  Plant response rating, Pigweed: 70
Rice [10]; [20]
  Plant response rating, Rice: 40
Rice [10]; [21]
  Plant response rating, Rice: 0
Velvetleaf [11]; [20]
  Plant response rating, Velvetleaf: 10
Velvetleaf [11]; 125 g ai/ha
  Velvetleaf plant response rating: 20
Velvetleaf [11]; 500 g ai/ha
  Velvetleaf plant response rating: 60
Velvetleaf [11]; [21]
  Plant response rating, Velvetleaf: 0
blackgrass; 125 g ai/ha
  Blackgrass plant response rating: 0
blackgrass; 500 g ai/ha
  Blackgrass plant response rating: 10
wheat
  Wheat plant response rating: 10
Wild oat; 125 g ai/ha
  Oat, Wild plant response rating: 20
Wild oat; 500 g ai/ha
  Oat, Wild plant response rating: 20
Rice [12]
  Rice plant response rating: 40
[13]
  Sedge, Umbrella plant response rating: 50
ducksalad
  Ducksalad plant response rating: 20
Barnyardgrass [14]
  Barnyardgrass plant response rating: 70
